Experimental data as given in patent US10670605B2, “Cysteine reactive probes and uses thereof” (The Scripps Research Institute, priority 2015, dated 2020).

What was measured:
Assay in all cases: Competitive isoTOP-ABPP in situ (fragment-treated cells)
Type in all cases: cell-based
[1] = target: cysteines in MDA-MB-231 and Ramos cells (Homo sapiens, UniProt P49189); details: 200 μM, insitu, 231
Experimental: (§1) Fragments 4 and 11 were screened at 100 μM in situ. […] Site-specific engagement of electrophilic fragments was assessed by blockade of IA-alkyne probe labeling. […] Ratios for unique peptide entries were calculated for each experiment; overlapping peptides with the same modified cysteine (e.g. different charge states, MudPIT chromatographic steps or tryptic termini) were grouped together and the median ratio was reported as the final ratio (R). The peptide ratios reported by CIMAGE were further filtered to ensure the removal or correction of low quality ratios in each individual dataset. […] R values were calculated and individual datasets were filtered as described above (R value calculation and processing).

[2] = target: cysteines in MDA-MB-231 and Ramos cells (Homo sapiens, UniProt Q00765); details: 200 μM, insitu
Experimental: as §1

[3] = target: cysteines in MDA-MB-231 and Ramos cells (Homo sapiens, UniProt Q13630); details: 200 μM, insitu, 231
Experimental: as §1

[4] = target: cysteines in MDA-MB-231 and Ramos cells (Homo sapiens, UniProt Q5MNZ6); details: 200 μM, insitu, 231
Experimental: as §1

[5] = target: T1, cysteines in MDA-MB-231 and Ramos cells (Homo sapiens, UniProt Q86YH6); details: 200 μM, insitu
T1 sequence (Q86YH6 1-399): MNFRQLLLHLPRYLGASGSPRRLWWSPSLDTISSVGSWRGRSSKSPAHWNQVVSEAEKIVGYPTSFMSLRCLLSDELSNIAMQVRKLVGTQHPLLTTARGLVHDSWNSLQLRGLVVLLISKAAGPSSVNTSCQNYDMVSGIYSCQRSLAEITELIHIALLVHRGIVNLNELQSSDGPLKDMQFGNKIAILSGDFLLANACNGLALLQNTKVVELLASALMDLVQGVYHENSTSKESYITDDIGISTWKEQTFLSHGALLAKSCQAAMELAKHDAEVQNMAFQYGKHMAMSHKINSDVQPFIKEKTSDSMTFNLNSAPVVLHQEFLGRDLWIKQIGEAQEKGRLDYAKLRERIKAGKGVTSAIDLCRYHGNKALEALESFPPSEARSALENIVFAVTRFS
Experimental: as §1

[6] = target: cysteines in MDA-MB-231 and Ramos cells (Homo sapiens, UniProt Q8NDH3); details: 200 μM, insitu, 231
Experimental: as §1

[7] = target: cysteines in MDA-MB-231 and Ramos cells (Homo sapiens, UniProt Q96EY5); details: 200 μM, insitu
Experimental: as §1

[8] = target: cysteines in MDA-MB-231 and Ramos cells (Homo sapiens, UniProt Q96NY7); details: 200 μM, insitu, 231
Experimental: as §1

[9] = target: cysteines in MDA-MB-231 and Ramos cells (Homo sapiens, UniProt P22061); details: 200 μM, insitu
Experimental: as §1

[10] = target: T2, cysteines in MDA-MB-231 and Ramos cells (Homo sapiens, UniProt P35754); details: 200 μM, insitu
T2 sequence (P35754 1-106): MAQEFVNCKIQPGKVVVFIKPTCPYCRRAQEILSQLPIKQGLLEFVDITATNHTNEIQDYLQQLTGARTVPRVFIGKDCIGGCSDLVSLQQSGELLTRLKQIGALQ
Experimental: as §1

[11] = target: T3, cysteines in MDA-MB-231 and Ramos cells (Homo sapiens, UniProt Q9NPH0); details: 200 μM, insitu
T3 sequence (Q9NPH0 33-428): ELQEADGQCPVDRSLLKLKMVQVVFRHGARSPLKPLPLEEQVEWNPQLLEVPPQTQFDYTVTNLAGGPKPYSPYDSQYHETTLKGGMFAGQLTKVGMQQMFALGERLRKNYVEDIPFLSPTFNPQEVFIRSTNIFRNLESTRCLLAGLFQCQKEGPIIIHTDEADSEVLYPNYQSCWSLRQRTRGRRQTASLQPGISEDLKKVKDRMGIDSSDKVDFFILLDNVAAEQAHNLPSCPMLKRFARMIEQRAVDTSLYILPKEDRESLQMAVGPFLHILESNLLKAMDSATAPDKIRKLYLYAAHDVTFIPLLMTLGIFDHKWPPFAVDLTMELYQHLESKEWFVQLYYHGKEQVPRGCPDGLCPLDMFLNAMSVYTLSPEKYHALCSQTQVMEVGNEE
Experimental: as §1

[12] = target: cysteines in MDA-MB-231 and Ramos cells (Homo sapiens, UniProt P48643); details: 200 μM, insitu
Experimental: as §1

[13] = target: cysteines in MDA-MB-231 and Ramos cells (Homo sapiens, UniProt P51812); details: 200 μM, insitu
Experimental: as §1

[14] = target: cysteines in MDA-MB-231 and Ramos cells (Homo sapiens, UniProt P51610); details: 200 μM, insitu, 231
Experimental: as §1

cysteines in MDA-MB-231 and Ramos cells (Homo sapiens, UniProt Q5MNZ6), sequence (Q5MNZ6 whole entry): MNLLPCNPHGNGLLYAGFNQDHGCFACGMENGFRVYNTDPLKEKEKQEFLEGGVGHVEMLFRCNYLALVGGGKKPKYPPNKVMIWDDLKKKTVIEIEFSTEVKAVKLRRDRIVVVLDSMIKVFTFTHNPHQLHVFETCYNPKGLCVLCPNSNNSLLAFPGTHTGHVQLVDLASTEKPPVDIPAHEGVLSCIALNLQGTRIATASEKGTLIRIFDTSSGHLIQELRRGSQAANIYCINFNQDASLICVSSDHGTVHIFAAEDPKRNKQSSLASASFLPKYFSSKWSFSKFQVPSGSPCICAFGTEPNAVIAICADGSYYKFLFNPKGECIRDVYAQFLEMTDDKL
cysteines in MDA-MB-231 and Ramos cells (Homo sapiens, UniProt P49189), sequence (P49189 whole entry): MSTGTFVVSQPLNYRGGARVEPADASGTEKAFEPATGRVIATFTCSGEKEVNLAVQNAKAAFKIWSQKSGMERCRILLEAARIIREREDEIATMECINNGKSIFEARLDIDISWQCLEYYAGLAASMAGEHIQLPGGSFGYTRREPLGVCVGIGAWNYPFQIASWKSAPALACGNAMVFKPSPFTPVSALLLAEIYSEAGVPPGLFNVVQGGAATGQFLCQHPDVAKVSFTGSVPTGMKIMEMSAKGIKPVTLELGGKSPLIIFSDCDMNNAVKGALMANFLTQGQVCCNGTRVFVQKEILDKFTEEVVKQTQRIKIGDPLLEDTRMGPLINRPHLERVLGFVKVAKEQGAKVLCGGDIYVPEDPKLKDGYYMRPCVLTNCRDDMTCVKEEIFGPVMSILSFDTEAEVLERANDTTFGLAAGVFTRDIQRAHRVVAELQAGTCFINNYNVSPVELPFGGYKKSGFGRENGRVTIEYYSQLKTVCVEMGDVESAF
cysteines in MDA-MB-231 and Ramos cells (Homo sapiens, UniProt Q8NDH3), sequence (Q8NDH3 whole entry): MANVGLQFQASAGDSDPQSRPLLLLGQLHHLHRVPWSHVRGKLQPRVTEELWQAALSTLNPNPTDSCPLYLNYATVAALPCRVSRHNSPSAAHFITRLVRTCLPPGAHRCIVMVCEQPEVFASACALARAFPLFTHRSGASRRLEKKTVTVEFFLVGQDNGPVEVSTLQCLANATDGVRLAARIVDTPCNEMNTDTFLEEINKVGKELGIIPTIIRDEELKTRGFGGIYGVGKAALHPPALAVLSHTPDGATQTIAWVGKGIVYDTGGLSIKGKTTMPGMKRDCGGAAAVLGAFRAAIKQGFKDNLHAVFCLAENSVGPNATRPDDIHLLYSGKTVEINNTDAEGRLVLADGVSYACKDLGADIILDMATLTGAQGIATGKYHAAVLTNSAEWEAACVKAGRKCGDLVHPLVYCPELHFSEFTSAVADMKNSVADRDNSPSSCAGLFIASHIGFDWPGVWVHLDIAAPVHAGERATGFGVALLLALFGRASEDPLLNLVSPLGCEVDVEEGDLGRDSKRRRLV
cysteines in MDA-MB-231 and Ramos cells (Homo sapiens, UniProt P22061), sequence (P22061 whole entry): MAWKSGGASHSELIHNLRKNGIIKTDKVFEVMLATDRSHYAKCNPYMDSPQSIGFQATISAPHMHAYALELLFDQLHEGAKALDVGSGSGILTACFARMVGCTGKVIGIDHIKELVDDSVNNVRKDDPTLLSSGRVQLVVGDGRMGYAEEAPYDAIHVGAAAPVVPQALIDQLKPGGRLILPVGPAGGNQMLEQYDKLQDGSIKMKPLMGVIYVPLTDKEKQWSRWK
cysteines in MDA-MB-231 and Ramos cells (Homo sapiens, UniProt P48643), sequence (P48643 whole entry): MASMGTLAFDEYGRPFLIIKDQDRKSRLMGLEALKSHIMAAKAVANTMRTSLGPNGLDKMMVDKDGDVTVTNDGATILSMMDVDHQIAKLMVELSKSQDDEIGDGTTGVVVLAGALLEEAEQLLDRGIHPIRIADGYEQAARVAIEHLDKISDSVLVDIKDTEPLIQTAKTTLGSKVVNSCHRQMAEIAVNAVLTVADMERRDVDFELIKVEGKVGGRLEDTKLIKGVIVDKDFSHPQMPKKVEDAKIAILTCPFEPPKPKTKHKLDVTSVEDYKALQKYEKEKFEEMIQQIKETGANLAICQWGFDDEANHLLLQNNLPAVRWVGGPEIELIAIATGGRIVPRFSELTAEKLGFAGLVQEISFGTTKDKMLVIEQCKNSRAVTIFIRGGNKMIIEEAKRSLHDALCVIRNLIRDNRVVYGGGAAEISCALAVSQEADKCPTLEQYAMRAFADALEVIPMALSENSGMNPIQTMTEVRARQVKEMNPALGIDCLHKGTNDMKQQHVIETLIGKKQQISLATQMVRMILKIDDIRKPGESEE
cysteines in MDA-MB-231 and Ramos cells (Homo sapiens, UniProt Q96NY7), sequence (Q96NY7 whole entry): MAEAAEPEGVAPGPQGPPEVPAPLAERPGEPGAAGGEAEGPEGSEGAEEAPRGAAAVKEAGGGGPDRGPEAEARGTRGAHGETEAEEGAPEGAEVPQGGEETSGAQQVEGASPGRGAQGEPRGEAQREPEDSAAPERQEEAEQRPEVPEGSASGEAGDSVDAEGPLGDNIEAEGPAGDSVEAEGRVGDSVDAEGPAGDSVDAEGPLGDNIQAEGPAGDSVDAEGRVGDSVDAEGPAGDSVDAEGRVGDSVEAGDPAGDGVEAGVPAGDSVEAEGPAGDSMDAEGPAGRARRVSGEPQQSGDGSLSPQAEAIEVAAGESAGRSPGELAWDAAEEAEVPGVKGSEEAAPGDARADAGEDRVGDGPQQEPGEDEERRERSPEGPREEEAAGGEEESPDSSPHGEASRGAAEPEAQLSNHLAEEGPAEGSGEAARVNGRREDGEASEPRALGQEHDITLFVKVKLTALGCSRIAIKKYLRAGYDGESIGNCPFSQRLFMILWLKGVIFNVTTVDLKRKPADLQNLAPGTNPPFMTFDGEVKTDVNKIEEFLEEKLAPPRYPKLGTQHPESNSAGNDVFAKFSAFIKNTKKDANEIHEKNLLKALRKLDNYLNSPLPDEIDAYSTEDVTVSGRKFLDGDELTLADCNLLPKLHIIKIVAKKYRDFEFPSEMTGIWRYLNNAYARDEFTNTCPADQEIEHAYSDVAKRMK
cysteines in MDA-MB-231 and Ramos cells (Homo sapiens, UniProt Q00765), sequence (Q00765 whole entry): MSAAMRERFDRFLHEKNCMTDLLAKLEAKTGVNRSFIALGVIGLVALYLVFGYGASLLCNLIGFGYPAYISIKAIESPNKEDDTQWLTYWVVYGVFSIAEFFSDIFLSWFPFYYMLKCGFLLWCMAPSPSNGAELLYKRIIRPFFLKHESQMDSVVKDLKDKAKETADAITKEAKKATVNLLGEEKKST
cysteines in MDA-MB-231 and Ramos cells (Homo sapiens, UniProt P51812), sequence (P51812 whole entry): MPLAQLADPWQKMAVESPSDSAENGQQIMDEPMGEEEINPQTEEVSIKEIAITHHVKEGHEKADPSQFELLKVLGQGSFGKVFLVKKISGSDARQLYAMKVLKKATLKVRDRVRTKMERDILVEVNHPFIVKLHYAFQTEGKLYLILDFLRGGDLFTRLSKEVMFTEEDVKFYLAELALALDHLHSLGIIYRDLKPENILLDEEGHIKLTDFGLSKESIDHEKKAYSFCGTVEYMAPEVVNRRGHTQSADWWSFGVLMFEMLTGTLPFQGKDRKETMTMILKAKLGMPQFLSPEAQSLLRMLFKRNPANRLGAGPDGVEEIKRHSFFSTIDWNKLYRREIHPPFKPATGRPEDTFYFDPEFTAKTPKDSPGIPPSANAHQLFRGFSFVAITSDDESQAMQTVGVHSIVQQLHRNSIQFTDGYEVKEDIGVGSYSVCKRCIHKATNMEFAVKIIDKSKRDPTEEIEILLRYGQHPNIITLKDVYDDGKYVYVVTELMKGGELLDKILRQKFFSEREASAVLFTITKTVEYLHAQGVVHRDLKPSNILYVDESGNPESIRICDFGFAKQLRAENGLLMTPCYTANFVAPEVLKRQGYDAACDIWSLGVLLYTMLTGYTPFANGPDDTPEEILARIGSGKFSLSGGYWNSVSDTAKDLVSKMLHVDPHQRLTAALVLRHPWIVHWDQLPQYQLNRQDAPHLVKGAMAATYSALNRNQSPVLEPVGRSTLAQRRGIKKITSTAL
cysteines in MDA-MB-231 and Ramos cells (Homo sapiens, UniProt Q13630), sequence (Q13630 whole entry): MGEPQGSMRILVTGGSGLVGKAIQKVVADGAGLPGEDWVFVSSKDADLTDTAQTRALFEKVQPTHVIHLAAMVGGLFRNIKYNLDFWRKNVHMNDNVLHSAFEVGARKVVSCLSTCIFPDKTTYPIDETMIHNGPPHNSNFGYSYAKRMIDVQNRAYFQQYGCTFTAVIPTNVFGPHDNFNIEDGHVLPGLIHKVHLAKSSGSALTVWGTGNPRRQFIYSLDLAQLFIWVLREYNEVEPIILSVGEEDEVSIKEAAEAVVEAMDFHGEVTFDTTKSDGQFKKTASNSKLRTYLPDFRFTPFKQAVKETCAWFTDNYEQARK

| Compound | isoTOP-ABPP ratio P49189_C288 [1] | isoTOP-ABPP ratio Q00765_C18 [2]; 231 | isoTOP-ABPP ratio Q5MNZ6_C63 [4] | isoTOP-ABPP ratio Q86YH6_C71 [5]; 231 | isoTOP-ABPP ratio Q96NY7_C487 [8] | isoTOP-ABPP ratio P35754_C23 [10]; 231 | isoTOP-ABPP ratio P48643_C253 [12]; 231 | other results |
| --- | --- | --- | --- | --- | --- | --- | --- | --- |
| O=C(CCl)NC12CC3CC(CC(C3)C1)C2 [compound 21] | 1.0 | 0.7 | 0.8 | 2.1 | 1.2 |  |  | isoTOP-ABPP ratio, cysteine Q13630_C116 [3]: 0.8; isoTOP-ABPP ratio, cysteine Q8NDH3_C81 [6]: 1.6; isoTOP-ABPP ratio, cysteine Q96EY5_C231 [7]; 231: 0.7 |
| CC(C)CCOCCNC(=O)CCl [compound 27] |  | 1.1 |  | 1.3 |  | 0.7 |  | isoTOP-ABPP ratio P22061_ [9]; 231: 2.2; isoTOP-ABPP ratio Q96EY5_C231 [7]; 231: 0.6; isoTOP-ABPP ratio Q9NPH0_C267 [11]; 231: 1.3 |
| COc1ccccc1OCCNC(=O)CCl [compound 28] |  |  | 1.7 |  |  | 1.4 | 0.8 |  |
| O=C(CCl)N1CCN(CC(=O)N2CCOCC2)CC1 [compound 29] |  |  |  |  |  |  |  | isoTOP-ABPP ratio P22061_ ([9]; ramos): 1.2; isoTOP-ABPP ratio P51812_C436 ([13]; ramos): 1.3; isoTOP-ABPP ratio Q00765_C18 ([2]; ramos): 1.4; isoTOP-ABPP ratio Q86YH6_C71 ([5]; ramos): 1.1; isoTOP-ABPP ratio Q96EY5_C231 ([7]; ramos): 1.1; isoTOP-ABPP ratio Q9NPH0_C267 ([11]; ramos): 2.1 |
| C=CC(=O)N(Cc1cccnc1)c1cc(C(F)(F)F)cc(C(F)(F)F)c1 [compound 31] |  |  |  |  | 0.5 | 0.6 | 0.5 | isoTOP-ABPP ratio P35754_C23 ([10]; ramos): 1.1; isoTOP-ABPP ratio P48643_C253 ([12]; ramos): 1.0; isoTOP-ABPP ratio Q8NDH3_C81 [6]: 1.0 |
| C=CC(=O)Nc1cc(F)c(N2CCN(C(=O)OC(C)(C)C)CC2)c(F)c1 [compound 38] | 0.7 |  |  |  |  | 0.9 | 1.1 | isoTOP-ABPP ratio P51610_C1872 [14]: 1.3; isoTOP-ABPP ratio Q8NDH3_C81 [6]: 2.0; isoTOP-ABPP ratio Q96EY5_C231 [7]; 231: 1.8 |
| Cc1ccc(C=C(C#N)C(=O)NCCN2CCOCC2)cc1 [compound 41] | 0.8 |  | 0.8 | 0.9 | 0.4 | 0.5 | 0.8 | isoTOP-ABPP ratio P22061_ [9]; 231: 0.7; isoTOP-ABPP ratio P51610_C1872 [14]: 0.5; isoTOP-ABPP ratio P51812_C436 [13]; 231: 4.5 |
| CC1CCc2ccccc2N1C(=O)CCl (stereo not drawn) [compound 45] | 20.0 | 20.0 | 2.6 | 20.0 | 1.8 | 16.3 | 1.2 | isoTOP-ABPP ratio Q13630_C116 [3]: 20.0; isoTOP-ABPP ratio Q9NPH0_C267 [11]; 231: 20.0 |
| O=C(CCl)Nc1cccc2ncccc12 [compound 51] |  |  |  |  |  |  | 0.8 |  |
